Read-outs that look alike come from different tables or passages of the source.
Assays:
Assay in all cases: Further analysis of a plurality of inhibitors and a plurality of kinases (Table 5 inhibition results)
Type in all cases: biochemical
Parameters in all cases: scale not given here
[1] = biological target: kinases of Table 5 (Homo sapiens, UniProt O75716); details: kinase STK16 (Part I, plate C3, Domain 1)
From the text: (§1) The wash solution is then discarded.

[2] = biological target: kinases of Table 5 (Homo sapiens, UniProt P09769); details: for Inhibition level: kinase FGR
From the text: as §1

[3] = biological target: kinases of Table 5 (Homo sapiens, UniProt Q13627); details: kinase DYRK1A (Part I, plate G6, Domain 1)
From the text: as §1

[4] = biological target: T1, kinases of Table 5 (Homo sapiens, UniProt P54762)
T1 sequence (P54762 18-984): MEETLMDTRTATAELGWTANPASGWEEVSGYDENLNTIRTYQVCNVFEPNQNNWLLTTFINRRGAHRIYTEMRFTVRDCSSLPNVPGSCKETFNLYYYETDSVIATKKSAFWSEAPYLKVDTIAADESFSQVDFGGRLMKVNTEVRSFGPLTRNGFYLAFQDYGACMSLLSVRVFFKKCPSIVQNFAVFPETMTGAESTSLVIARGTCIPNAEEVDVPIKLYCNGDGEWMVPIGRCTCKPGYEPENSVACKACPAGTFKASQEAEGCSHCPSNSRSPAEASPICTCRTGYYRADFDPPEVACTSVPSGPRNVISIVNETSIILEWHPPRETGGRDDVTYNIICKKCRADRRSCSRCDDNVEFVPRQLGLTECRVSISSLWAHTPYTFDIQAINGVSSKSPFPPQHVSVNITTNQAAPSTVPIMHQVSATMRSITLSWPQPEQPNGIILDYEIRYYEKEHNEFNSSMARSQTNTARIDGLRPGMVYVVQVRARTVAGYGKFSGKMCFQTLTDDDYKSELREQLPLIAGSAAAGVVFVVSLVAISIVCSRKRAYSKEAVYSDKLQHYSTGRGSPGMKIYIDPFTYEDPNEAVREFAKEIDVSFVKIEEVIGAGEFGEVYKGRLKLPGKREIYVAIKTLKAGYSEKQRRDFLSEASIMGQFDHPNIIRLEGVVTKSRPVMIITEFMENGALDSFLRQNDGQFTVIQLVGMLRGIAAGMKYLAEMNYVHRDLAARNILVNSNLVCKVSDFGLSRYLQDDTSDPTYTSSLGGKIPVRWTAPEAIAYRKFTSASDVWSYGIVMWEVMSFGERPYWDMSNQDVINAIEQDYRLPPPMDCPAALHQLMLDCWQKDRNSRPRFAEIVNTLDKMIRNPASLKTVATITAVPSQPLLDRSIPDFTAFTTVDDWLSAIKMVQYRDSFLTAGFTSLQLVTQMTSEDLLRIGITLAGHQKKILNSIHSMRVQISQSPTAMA
From the text: as §1

[5] = biological target: kinases of Table 5 (Homo sapiens, UniProt P07949); details: kinase RET
Sequence of kinases of Table 5 (Homo sapiens, UniProt P07949) (P07949 29-1114): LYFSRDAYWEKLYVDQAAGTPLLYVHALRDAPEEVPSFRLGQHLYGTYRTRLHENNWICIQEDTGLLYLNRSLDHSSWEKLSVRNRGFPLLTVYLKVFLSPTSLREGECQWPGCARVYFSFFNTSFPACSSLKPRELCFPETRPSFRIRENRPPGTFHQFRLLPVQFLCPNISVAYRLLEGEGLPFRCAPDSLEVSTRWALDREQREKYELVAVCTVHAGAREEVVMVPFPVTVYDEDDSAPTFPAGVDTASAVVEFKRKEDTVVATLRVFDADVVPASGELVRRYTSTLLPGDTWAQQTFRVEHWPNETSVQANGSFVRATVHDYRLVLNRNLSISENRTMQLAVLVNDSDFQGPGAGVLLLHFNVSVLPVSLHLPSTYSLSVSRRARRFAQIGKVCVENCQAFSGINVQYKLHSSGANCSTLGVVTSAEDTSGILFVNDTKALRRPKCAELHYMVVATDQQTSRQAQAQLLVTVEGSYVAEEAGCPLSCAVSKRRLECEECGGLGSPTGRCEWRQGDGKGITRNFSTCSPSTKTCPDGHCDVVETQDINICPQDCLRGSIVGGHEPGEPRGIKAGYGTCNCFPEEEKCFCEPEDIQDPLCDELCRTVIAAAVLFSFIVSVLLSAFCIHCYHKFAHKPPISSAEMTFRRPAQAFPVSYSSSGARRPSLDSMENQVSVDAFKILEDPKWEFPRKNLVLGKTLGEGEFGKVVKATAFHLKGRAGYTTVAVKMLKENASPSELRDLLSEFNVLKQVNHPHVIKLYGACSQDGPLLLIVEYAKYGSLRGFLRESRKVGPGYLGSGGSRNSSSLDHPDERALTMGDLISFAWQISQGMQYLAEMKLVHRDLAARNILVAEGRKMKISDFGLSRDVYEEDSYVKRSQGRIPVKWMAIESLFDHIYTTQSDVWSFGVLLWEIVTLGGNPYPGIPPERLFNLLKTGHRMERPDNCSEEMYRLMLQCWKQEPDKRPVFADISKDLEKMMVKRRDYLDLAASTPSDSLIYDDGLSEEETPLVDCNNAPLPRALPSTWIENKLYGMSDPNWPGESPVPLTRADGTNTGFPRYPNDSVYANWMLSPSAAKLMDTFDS
From the text: as §1

[6] = biological target: kinases of Table 5 (Homo sapiens, UniProt P21802); details: for Inhibition level: kinase FGFR2
From the text: as §1

[7] = biological target: kinases of Table 5 (Homo sapiens, UniProt Q05655); details: for Inhibition level: kinase PRKCD
Sequence of kinases of Table 5 (Homo sapiens, UniProt Q05655) (Q05655 whole entry): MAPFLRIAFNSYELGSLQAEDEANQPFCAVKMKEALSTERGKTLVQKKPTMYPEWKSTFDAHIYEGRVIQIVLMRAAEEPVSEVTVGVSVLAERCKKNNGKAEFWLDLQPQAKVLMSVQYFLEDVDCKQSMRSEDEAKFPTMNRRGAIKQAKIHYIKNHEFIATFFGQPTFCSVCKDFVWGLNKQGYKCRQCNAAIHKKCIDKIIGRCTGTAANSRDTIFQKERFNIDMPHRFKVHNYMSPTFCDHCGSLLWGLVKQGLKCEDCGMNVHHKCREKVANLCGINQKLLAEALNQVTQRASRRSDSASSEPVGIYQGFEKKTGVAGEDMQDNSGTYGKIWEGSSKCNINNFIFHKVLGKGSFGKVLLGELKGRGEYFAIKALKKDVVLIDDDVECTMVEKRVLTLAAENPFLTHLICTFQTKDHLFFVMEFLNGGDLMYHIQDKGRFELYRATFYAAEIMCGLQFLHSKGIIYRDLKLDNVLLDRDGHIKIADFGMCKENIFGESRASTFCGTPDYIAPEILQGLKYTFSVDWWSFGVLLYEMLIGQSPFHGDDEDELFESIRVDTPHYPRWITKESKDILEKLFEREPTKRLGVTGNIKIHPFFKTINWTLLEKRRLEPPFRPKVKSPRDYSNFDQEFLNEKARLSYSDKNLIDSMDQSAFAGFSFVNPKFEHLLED
From the text: as §1

[8] = biological target: kinases of Table 5 (Homo sapiens, UniProt Q14289); details: kinase PTK2B (Part I, plate G5, Domain 1)
Sequence of kinases of Table 5 (Homo sapiens, UniProt Q14289) (Q14289 whole entry): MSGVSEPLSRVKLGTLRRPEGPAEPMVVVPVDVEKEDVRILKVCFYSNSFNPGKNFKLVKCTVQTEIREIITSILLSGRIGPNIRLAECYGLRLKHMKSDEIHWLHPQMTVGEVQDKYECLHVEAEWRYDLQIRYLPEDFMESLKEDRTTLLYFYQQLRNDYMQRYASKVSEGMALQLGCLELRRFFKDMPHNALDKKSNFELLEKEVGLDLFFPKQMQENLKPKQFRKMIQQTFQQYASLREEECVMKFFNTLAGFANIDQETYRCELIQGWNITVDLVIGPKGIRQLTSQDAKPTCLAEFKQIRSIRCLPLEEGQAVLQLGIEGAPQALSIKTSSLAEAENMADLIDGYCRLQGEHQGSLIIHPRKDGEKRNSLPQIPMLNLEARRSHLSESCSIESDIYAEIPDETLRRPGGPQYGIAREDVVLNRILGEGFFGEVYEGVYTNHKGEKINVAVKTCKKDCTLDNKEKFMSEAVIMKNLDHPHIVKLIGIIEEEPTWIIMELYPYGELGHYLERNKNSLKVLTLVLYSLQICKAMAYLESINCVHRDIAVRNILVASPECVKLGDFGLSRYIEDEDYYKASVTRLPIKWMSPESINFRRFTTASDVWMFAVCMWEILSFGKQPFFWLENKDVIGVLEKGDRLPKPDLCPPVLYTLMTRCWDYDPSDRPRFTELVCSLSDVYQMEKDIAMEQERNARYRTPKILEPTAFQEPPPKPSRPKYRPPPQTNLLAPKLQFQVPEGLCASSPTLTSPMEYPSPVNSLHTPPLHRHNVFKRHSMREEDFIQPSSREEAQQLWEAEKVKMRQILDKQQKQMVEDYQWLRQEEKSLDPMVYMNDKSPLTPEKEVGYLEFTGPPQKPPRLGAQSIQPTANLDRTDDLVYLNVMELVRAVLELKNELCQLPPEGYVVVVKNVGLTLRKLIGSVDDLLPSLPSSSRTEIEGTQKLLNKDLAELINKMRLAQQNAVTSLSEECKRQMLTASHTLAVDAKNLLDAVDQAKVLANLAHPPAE
From the text: as §1

[9] = biological target: kinases of Table 5 (Homo sapiens, UniProt P37173); details: kinase TGFBR2 (Part I, plate C7, Domain 1)
Sequence of kinases of Table 5 (Homo sapiens, UniProt P37173) (P37173 23-567): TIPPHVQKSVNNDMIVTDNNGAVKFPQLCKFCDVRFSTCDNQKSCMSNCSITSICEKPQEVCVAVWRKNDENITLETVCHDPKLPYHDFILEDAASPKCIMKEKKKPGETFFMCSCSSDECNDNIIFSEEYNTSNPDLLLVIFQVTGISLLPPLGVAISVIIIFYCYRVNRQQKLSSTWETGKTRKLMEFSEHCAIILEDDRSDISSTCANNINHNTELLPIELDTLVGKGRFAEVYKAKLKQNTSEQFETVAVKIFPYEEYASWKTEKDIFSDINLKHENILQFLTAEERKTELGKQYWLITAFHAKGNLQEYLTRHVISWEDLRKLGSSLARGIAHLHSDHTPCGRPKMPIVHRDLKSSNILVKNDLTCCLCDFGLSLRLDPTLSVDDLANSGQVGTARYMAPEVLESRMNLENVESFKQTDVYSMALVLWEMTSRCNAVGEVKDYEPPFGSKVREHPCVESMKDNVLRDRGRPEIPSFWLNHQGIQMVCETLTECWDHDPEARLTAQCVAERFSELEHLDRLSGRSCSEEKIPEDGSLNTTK
From the text: as §1

[10] = biological target: kinases of Table 5 (Homo sapiens, UniProt Q86UE8); details: kinase TLK2 (Part I, plate C8, Domain 1)
Sequence of kinases of Table 5 (Homo sapiens, UniProt Q86UE8) (Q86UE8 whole entry): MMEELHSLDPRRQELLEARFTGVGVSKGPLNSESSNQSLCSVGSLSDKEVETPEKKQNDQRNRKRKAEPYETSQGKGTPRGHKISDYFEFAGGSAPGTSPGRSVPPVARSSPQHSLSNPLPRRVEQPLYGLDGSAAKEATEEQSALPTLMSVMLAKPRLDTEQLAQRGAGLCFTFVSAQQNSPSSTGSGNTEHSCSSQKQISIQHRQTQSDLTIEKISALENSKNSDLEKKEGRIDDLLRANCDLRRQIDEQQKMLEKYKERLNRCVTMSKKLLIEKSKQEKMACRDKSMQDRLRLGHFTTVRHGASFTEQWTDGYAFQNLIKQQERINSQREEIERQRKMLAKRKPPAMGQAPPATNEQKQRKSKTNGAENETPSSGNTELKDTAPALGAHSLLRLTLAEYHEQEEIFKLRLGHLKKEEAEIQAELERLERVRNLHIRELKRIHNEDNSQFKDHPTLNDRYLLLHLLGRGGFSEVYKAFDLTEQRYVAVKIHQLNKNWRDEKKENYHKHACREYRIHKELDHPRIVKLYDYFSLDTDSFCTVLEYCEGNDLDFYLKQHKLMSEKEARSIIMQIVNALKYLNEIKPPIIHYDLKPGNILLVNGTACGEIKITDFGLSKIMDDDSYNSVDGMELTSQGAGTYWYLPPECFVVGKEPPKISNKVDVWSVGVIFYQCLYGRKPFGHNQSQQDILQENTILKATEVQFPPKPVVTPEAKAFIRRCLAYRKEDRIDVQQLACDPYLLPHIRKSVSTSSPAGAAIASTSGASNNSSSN
From the text: as §1

[11] = biological target: kinases of Table 5 (Homo sapiens, UniProt P07948)
From the text: as §1

[12] = biological target: kinases of Table 5 (Homo sapiens, UniProt P06239); details: kinase LCK (Part I, plate A6, Domain 0)
Sequence of kinases of Table 5 (Homo sapiens, UniProt P06239) (P06239 whole entry): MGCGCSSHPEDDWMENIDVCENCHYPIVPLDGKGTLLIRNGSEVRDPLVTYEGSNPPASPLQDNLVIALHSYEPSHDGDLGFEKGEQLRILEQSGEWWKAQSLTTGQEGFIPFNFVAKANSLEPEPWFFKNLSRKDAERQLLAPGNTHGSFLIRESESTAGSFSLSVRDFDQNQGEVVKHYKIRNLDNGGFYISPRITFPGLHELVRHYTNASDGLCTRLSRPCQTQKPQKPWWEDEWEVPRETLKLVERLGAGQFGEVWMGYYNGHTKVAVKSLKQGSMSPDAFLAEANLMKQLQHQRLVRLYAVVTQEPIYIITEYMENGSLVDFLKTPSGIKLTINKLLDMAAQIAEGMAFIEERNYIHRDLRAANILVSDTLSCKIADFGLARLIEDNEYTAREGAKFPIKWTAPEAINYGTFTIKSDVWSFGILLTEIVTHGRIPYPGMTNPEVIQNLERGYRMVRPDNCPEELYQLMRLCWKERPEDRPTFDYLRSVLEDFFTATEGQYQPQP
From the text: as §1

[13] = biological target: T2, kinases of Table 5 (Homo sapiens, UniProt Q92630); details: for Inhibition level: kinase DYRK2
T2 sequence (Q92630 1-601): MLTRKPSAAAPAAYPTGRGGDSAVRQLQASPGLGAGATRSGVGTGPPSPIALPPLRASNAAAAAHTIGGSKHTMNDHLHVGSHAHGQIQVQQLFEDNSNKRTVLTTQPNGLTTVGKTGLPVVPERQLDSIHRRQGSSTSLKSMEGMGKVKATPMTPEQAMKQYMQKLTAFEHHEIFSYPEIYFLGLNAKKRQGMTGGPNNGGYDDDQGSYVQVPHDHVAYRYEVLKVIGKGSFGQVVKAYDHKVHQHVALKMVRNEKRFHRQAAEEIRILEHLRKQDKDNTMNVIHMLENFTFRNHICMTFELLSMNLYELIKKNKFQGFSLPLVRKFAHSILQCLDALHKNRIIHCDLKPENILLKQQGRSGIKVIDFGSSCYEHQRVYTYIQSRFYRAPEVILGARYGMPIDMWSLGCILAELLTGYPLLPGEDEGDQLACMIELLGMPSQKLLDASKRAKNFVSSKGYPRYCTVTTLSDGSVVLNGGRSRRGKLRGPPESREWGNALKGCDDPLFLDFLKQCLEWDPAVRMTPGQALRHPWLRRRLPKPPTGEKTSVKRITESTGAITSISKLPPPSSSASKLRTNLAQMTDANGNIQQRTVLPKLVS
From the text: as §1

[14] = kinase FGFR2 (Part I, plate G8, Domain 1), inhibitor 100 uM
[15] = kinase LYN (Part I, plate A5, Domain 0), inhibitor 100 uM
[16] = kinase EPHB1, concentration not given

Sequence of kinases of Table 5 (Homo sapiens, UniProt O75716) (O75716 whole entry): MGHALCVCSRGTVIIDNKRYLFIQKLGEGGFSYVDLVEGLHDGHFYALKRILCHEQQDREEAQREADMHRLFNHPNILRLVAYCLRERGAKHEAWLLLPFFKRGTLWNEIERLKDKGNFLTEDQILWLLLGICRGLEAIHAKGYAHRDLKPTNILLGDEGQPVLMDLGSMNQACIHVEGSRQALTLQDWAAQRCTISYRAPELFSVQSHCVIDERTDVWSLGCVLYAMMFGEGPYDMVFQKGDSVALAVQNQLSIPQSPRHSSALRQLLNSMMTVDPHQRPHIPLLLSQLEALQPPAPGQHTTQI

| Inhibition Results (Level) ([1]; inhibitor 100 uM) | Inhibition level ([2]; inhibitor 100 uM) | Inhibition Results (Level) ([3]; inhibitor 100 uM) | Inhibition level ([4]; kinase EPHB1, inhibitor 100 uM) | Inhibition level ([5]; inhibitor 100 uM) | Inhibition Results (Level) [6, 14] | Inhibition level ([6]; inhibitor 100 uM) | Inhibition level ([7]; inhibitor 100 uM) | Inhibition Results (Level) ([8]; inhibitor 100 uM) | Inhibition Results (Level) ([9]; inhibitor 100 uM) | Inhibition Results (Level) ([10]; inhibitor 100 uM) | Inhibition Results (Level) [11, 15] | Inhibition Results (Level) ([12]; inhibitor 100 uM) | Inhibition level ([13]; inhibitor 100 uM) | Inhibition level ([2]; concentration not given) | Structure (SMILES) | other results |
| --- | --- | --- | --- | --- | --- | --- | --- | --- | --- | --- | --- | --- | --- | --- | --- | --- |
| 0 | 2 | 0 | 2 | 2 | 2 | 2 | 0 | 2 | 2 | 2 | 2 | 2 | 2 | – | COc1cc2ncnc(Nc3cccc(Cl)c3)c2cc1OC [AG 1478] | – |
| 0 | 2 | 2 | 1 | 2 | 2 | 2 | 0 | 2 | 2 | 2 | 2 | 2 | 2 | 2 | O=c1c(-c2ccc(O)cc2)coc2cc(O)cc(O)c12 [Genistein] | Inhibition Results (Level) ([1]; inhibitor <3.7 mM): 0; Inhibition Results (Level) ([3]; inhibitor <3.7 mM): 1; Inhibition level [4, 16]: 0; Inhibition level ([5]; concentration not given): 0; Inhibition Results (Level) ([6]; kinase FGFR2 (Part I, plate G8, Domain 1), inhibitor <3.7 mM): 0; Inhibition level ([6]; concentration not given): 1; Inhibition level ([7]; concentration not given): 0; Inhibition Results (Level) ([9]; inhibitor <3.7 mM): 1; Inhibition Results (Level) ([10]; inhibitor <3.7 mM): 0; Inhibition Results (Level) ([11]; kinase LYN (Part I, plate A5, Domain 0), inhibitor <3.7 mM): 2; Inhibition Results (Level) ([12]; inhibitor <3.7 mM): 0; Inhibition level ([13]; concentration not given): 1 |
| 1 | 2 | 2 | 0 | 0 | 2 | 2 | 0 | 2 | 2 | 1 | 2 | 2 | 2 | 2 | Cn1cc(C2=C(c3cn(CCCSC(=N)N)c4ccccc34)C(=O)NC2=O)c2ccccc21 [Ro-31-8220] | Inhibition Results (Level) ([1]; inhibitor 90 uM): 2; Inhibition Results (Level) ([3]; inhibitor 90 uM): 0; Inhibition level [4, 16]: 2; Inhibition level ([5]; concentration not given): 2; Inhibition Results (Level) ([6]; kinase FGFR2 (Part I, plate G8, Domain 1), inhibitor 90 uM): 2; Inhibition level ([6]; concentration not given): 0; Inhibition level ([7]; concentration not given): 2; Inhibition Results (Level) ([8]; inhibitor 90 uM): 0; Inhibition Results (Level) ([9]; inhibitor 90 uM): 2; Inhibition Results (Level) ([10]; inhibitor 90 uM): 2; Inhibition Results (Level) ([11]; kinase LYN (Part I, plate A5, Domain 0), inhibitor 90 uM): 0; Inhibition Results (Level) ([12]; inhibitor 90 uM): 0; Inhibition level ([13]; concentration not given): 0 |
| 2 | 2 | 1 | 2 | 2 | 2 | 2 | 0 | 2 | 2 | 2 | 2 | – | 2 | – | CC(C)(C)n1nc(-c2ccc(Cl)cc2)c2c(N)ncnc21 [PP2] | – |

| Structure (SMILES) | Inhibition Results (Level) ([1]; inhibitor 100 uM) | Inhibition level ([2]; inhibitor 100 uM) | Inhibition Results (Level) ([3]; inhibitor 100 uM) | Inhibition level ([4]; kinase EPHB1, inhibitor 100 uM) | Inhibition level ([5]; inhibitor 100 uM) | Inhibition Results (Level) [6, 14] | Inhibition level ([6]; inhibitor 100 uM) | Inhibition level ([7]; inhibitor 100 uM) | Inhibition Results (Level) ([8]; inhibitor 100 uM) | Inhibition Results (Level) ([9]; inhibitor 100 uM) | Inhibition Results (Level) ([10]; inhibitor 100 uM) | Inhibition Results (Level) [11, 15] | Inhibition Results (Level) ([12]; inhibitor 100 uM) | Inhibition level ([13]; inhibitor 100 uM) | Inhibition level ([2]; concentration not given) | other results |
| --- | --- | --- | --- | --- | --- | --- | --- | --- | --- | --- | --- | --- | --- | --- | --- | --- |
| N#C/C(=C/c1ccc(O)c(O)c1)C(=O)NCc1ccccc1 [AG 490] | 0 | 2 | 2 | 0 | 2 | 2 | 2 | 0 | 2 | 2 | 2 | 2 | 2 | 2 | – | – |
| O=c1c(O)c(-c2ccc(O)c(O)c2)oc2cc(O)cc(O)c12 [Quercetin] | 0 | – | – | – | – | 0 | – | – | 1 | 0 | 0 | 2 | – | – | – | Inhibition Results (Level) ([2]; kinase FGR (Part II, plate B10, Domain 0), inhibitor 100 uM): 2; Inhibition Results (Level) ([4]; kinase EPHB1 (Part II, plate B8, Domain 1), inhibitor 100 uM): 0; Inhibition Results (Level) ([6]; kinase FGFR2 (Part II, plate B4, Domain 1), inhibitor 100 uM): 0; Inhibition Results (Level) ([7]; kinase PRKCD (Part II, plate B2, Domain 0), inhibitor 100 uM): 0; Inhibition Results (Level) ([13]; kinase DYRK2 (Part II, plate D11, Domain 1), inhibitor 100 uM): 2 |
| CN[C@@H]1C[C@H]2O[C@@](C)([C@@H]1OC)n1c3ccccc3c3c4c(c5c6ccccc6n2c5c31)C(=O)NC4 [Staurosporine] | – | – | – | – | – | – | – | – | – | – | – | – | – | – | 2 | Inhibition Results (Level) ([1]; inhibitor 21.5 uM): 2; Inhibition level [4]: 2; Inhibition Results (Level) ([8]; inhibitor 21.5 uM): 0; Inhibition Results (Level) ([9]; inhibitor 21.5 uM): 2; Inhibition Results (Level) ([10]; inhibitor 21.5 uM): 2; Inhibition Results (Level) [11]: 0 |

Reference: patent publication US20090099029A1, “Methods and substrates for conducting assays” (Invitrogen Corporation, priority 2005, published 2009)
